{"source": "patent US8138167B2", "about": "“Methods for treating lung cancers” (Oncotherapy Science, Inc., priority 2006, dated 2012)", "key": {"[1]": {"tested_on": "advanced non-small-cell lung cancer", "settings": "Japanese patients with advanced NSCLC treated since approval; cited from earlier work"}, "[2]": {"tested_on": "PC-9 cells", "settings": "gefitinib-sensitive, amphiregulin-nonexpressing NSCLC line PC-9; upon autocrine secretion of amphiregulin; cited from earlier work"}, "[3]": {"tested_on": "lung cancer", "settings": "cited from earlier work"}, "[4]": {"tested_on": "progressive non-small-cell lung cancer", "test": "gefitinib therapy (250 mg/day) of 50 patients with progressive non-small-cell lung cancer, overall evaluation of tumor response"}, "[5]": {"settings": "50 progressive NSCLC patients, gefitinib 250 mg/day, evaluation after four months"}, "[6]": {"settings": "of 50 patients after gefitinib therapy"}}, "note": "Like-named read-outs stand apart in the source and are kept apart here.", "data": [{"smiles": "COc1cc2ncnc(Nc3ccc(F)c(Cl)c3)c2cc1OCCCN1CCOCC1", "note": "[gefitinib, N-(3-chloro-4-fluorophenyl)-7-methoxy-6-(3-morpholinopropoxy)quinazolin-4-amine]", "values": [{"measurement": "patients showing no improvement in symptoms", "setting": "[1]", "value": 60, "unit": "%"}, {"measurement": "antitumor activity of gefitinib on PC-9 cells", "setting": "[2]", "value": "dramatically reduced"}, {"measurement": "median survival time", "setting": "[3]; adenocarcinoma patients, gefitinib arm (placebo […])", "value": 6.3, "unit": "months"}, {"measurement": "median survival time", "setting": "[3]; all parent populations, gefitinib arm (placebo 5.1)", "value": 5.6, "unit": "months"}, {"measurement": "disease control rate (CR+PR+SD/CR+PR+SD+PD)", "setting": "[4]; [5]", "value": 40.0, "unit": "%"}, {"measurement": "tumor response rate (CR+PR/CR+PR+SD+PD)", "setting": "[4]; [5]", "value": 16.0, "unit": "%"}, {"measurement": "patients classified as CR", "setting": "[4]; [6]", "value": "none"}, {"measurement": "patients classified as PD", "setting": "[4]; [6]", "value": 30, "unit": "patients"}, {"measurement": "patients classified as PR", "setting": "[4]; [6]", "value": "eight"}, {"measurement": "patients classified as SD", "setting": "[4]; [6]", "value": 12, "unit": "patients"}]}]}
